# Measured values reported in patent publication US8846615B2, “MNTF peptides” (Genervon Biopharmaceuticals, LLC, priority 2008, dated 2014).
# No end group written: not given here.
# Test system: rat spinal motor neurons
# Experiment: in vitro rat motor neuron cell survival assay
# Format: cell-based
# Details: 10 μg/mL peptide, medium lacking NTFs; surviving motor neurons as percentage of those surviving with NTFs alone (control); mean ± SD of five samples
# Experimental: FIG. 1. Illustrates a survival assay of exemplary MNTF peptides on motor neuron survival. Motor neurons were cultured from rat spinal cords and grown in culture for 3 days in the presence of BDNF, GDNF and CNTF. After 3 days, the cells were grown in the absence of the conventional trophic factors but with the indicated MNTF peptides at 10 microgram/ml. After 48 hours the number of live cells was determined. The graph indicates mean+/−SD of five samples (BDNF=Brain derived neurotrophic factor; GDNF=Glial derived neurotrophic factor; CNTF=Ciliary neurotrophic factor).
# Purification and culture of motor neurons. Spinal motor neuron cultures were prepared from E14.5 Sprague-Dawley rats (Charles River Labs). Briefly, dissected spinal cords were digested in 0.025% trypsin (Gibco) for 8 min at 37° C. The tissue was transferred to a solution containing L-15 medium (Gibco) supplemented with 2% horse serum (Gibco), insulin (5 μg/ml); putrescine (1×10^-4 M), conalbumin (100 μg/ml), sodium selenite (3×10^-8 M), progesterone (2×10^-8 M), glucose (3.6 mg/ml), penicillin (100 IU/ml), streptomycin (100 μg/ml), DNAse (100 μg/ml) and bovine serum albumin (BSA; 0.4%). […] The layered suspension was centrifuged at 830×g for 15 min. […] The motor neurons medium consists of neurobasal medium (Gibco) supplemented with B27 supplement (Gibco), glutamate (25 μM), 2-mercaptoethanol (25 μM) and 2% horse serum. The motor neurons were plated onto laminin-coated coverslips at a density of 3000 cells/coverslip unless otherwise stated. A cocktail of neurotrophic factors (NTFs: 1 ng/ml BDNF, 100 pg/ml GDNF, 10 ng/ml CNTF) was added at the time of cell seeding. After 24 h in culture, motor neurons were treated by addition of the different analogs diluted in motor neurons medium lacking NTFs.
# Survival assay. Spinal motor neurons were prepared from E14.5 rat embryos as described. Cells were cultured in the presence of NTFs for 24 h and viability (VI) was estimated by counting the number of calcein AM-positive cells. For viability studies, motor neurons were cultured in the absence of NTFs with the addition of the analogs or GM6. The percentage of viable motor neurons was calculated by counting the number of neurons.
# Statistical analysis. The number of surviving motor neurons for each treatment was expressed as a percentage of the number of motor neurons surviving in the presence of NTFs alone (control). Five dishes were used for each condition. Differences between treatments were analyzed for their statistical significance by one-way ANOVA with post hoc Tukey's testing.
row,Substance,MN survival (% Ctrl)
1,"SRYA [compound 3223, 4-mer MNTF peptide]",15.46 ± 1.82
2,"RYAR [compound 2311, 4-mer MNTF peptide, metabolite of the 6mer]",9.66 ± 2.50
3,"FSRYA [compound 2309, 5-mer MNTF peptide, metabolite of the 6mer]",81.5 ± 4.50
4,"SRY [compound 3221, 3-mer MNTF peptide]",9.08 ± 2.32
5,"SRYAR [compound 2312, 5-mer MNTF peptide, metabolite of the 6mer]",12.02 ± 2.31
6,"FSRYAR [GM6(GMP014), synthesized 6 amino acid peptide analog of MNTF]",94.02 ± 3.53
7,"YAR [compound 2310, 3-mer MNTF peptide, metabolite of the 6mer]",12.26 ± 1.70
8,"FSR [compound 2307, 3-mer MNTF peptide, metabolite of the 6mer]",35.00 ± 5.28
9,"RYA [compound 3222, 3-mer MNTF peptide]",10.64 ± 1.72
10,"FSRY [compound 2308, 4-mer MNTF peptide, metabolite of the 6mer]",66.38 ± 5.86

# Same assay, conditions: 10 μg/ml, culture medium lacking the conventional NTFs
row,Substance,trophic effect on motor neuron cell death (in words)
1,"FSRYAR [GM6(GMP014), synthesized 6 amino acid peptide analog of MNTF]",demonstrated protection from neuronal cell loss

# Same assay, conditions: 10 μg/ml, culture medium lacking the conventional NTFs; listed as GM6
row,Substance,trophic effect on motor neuron cell death (in words)
1,"FSRYAR [GM6(GMP014), synthesized 6 amino acid peptide analog of MNTF]",demonstrated an attenuation of motor neuron cell death
